Reference: PubChem BioAssay AID1963861 (Molecular Pharmacology Branch, DTP, NCI, 2024)

System: 885724-159-R-J1-PDC KRAS PDC multicell spheroid viability
Experiment: Anticancer human tumor 885724-159-R-J1-PDC patient-derived pancreatic adenocarcinoma cell line growth inhibition [KRAS2]
Settings: for IC50: curve of first compound; for viability, T/C: stronger effect = lower value
In short: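 KRAS-mutant tumor cells were grown as spheroids with HUVEC endothelial cells and human MSCs as stroma. Targeted agents were tested alone and with KRAS pathway inhibitors. Doses started at or near clinical Cmax, or 10 microM, descending half-log.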

[1] = second compound 0.1 µM, first compound 0.0316 µM
[2] = second compound 0.1 µM, first compound 0.1 µM
[3] = second compound 0.316 µM, first compound 0.0316 µM
[4] = second compound 0.316 µM, first compound 0.1 µM
[5] = second compound 1 µM, first compound 0.0316 µM
[6] = second compound 1 µM, first compound 0.1 µM
[7] = second compound 3.16 µM, first compound 0.0316 µM
[8] = second compound 3.16 µM, first compound 0.1 µM
[9] = second compound 10 µM, first compound 0.0316 µM
[10] = second compound 10 µM, first compound 0.1 µM
[11] = second compound 0.1 µM, first compound 0.316 µM
[12] = second compound 0.1 µM, first compound 1 µM
[13] = second compound 0.1 µM, first compound 3.16 µM
[14] = second compound 0.1 µM, first compound 10 µM
[15] = second compound 0.316 µM, first compound 0.316 µM
[16] = second compound 0.316 µM, first compound 1 µM
[17] = second compound 0.316 µM, first compound 3.16 µM
[18] = second compound 0.316 µM, first compound 10 µM
[19] = second compound 1 µM, first compound 0.316 µM
[20] = second compound 1 µM, first compound 1 µM
[21] = second compound 1 µM, first compound 3.16 µM
[22] = second compound 1 µM, first compound 10 µM
[23] = second compound 3.16 µM, first compound 0.316 µM
[24] = second compound 3.16 µM, first compound 1 µM
[25] = second compound 3.16 µM, first compound 3.16 µM
[26] = second compound 3.16 µM, first compound 10 µM
[27] = second compound 10 µM, first compound 0.316 µM
[28] = second compound 10 µM, first compound 1 µM
[29] = second compound 10 µM, first compound 3.16 µM
[30] = second compound 10 µM, first compound 10 µM
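Also: spheroids exposed to agents for 7 days before readout.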

With `CC(C)n1nc(-c2ccc3oc(N)nc3c2)c2c(N)ncnc21` + COc1cc2nc(C)nc(NC(C)c3cc(N)cc(C(F)(F)F)c3)c2cc1OC1CCOC1 the IC50 (second compound 0.1 µM) was 0.017 µM, the IC50 (second compound 0.316 µM) was 0.0203 µM and the IC50 (second compound 1 µM) was 0.0181 µM. For the same molecule, the IC50 (second compound 3.16 µM) was 0.00762 µM, the IC50 (second compound 10 µM) was under 0.000316 µM and the viability, T/C (second compound 0.1 µM, first compound 0.000316 µM) was 91.2%. For the same molecule, the viability, T/C (second compound 0.1 µM, first compound 0.001 µM) was 76.2%, the viability, T/C (second compound 0.1 µM, first compound 0.00316 µM) was 62.7% and the viability, T/C (second compound 0.1 µM, first compound 0.01 µM) was 53.2%. For the same molecule, the viability, T/C [1] was 47%, the viability, T/C [2] was 40.3% and the viability, T/C (second compound 0.316 µM, first compound 0.000316 µM) was 90.3%. For the same molecule, the viability, T/C (second compound 0.316 µM, first compound 0.001 µM) was 75.8%, the viability, T/C (second compound 0.316 µM, first compound 0.00316 µM) was 66.4% and the viability, T/C (second compound 0.316 µM, first compound 0.01 µM) was 57.2%. The viability, T/C [3] was 45%, the viability, T/C [4] was 39.2% and the viability, T/C (second compound 1 µM, first compound 0.000316 µM) was 93%. The viability, T/C (second compound 1 µM, first compound 0.001 µM) was 78.8%, the viability, T/C (second compound 1 µM, first compound 0.00316 µM) was 59.7% and the viability, T/C (second compound 1 µM, first compound 0.01 µM) was 56%. The viability, T/C [5] was 46.9%, the viability, T/C [6] was 42% and the viability, T/C (second compound 3.16 µM, first compound 0.000316 µM) was 76.4%. It also gave a viability, T/C (second compound 3.16 µM, first compound 0.001 µM) of 69.8%, a viability, T/C (second compound 3.16 µM, first compound 0.00316 µM) of 54.8% and a viability, T/C (second compound 3.16 µM, first compound 0.01 µM) of 49.1%. It also gave a viability, T/C [7] of 47%, a viability, T/C [8] of 42.6% and a viability, T/C (second compound 10 µM, first compound 0.000316 µM) of 36.4%. It also gave a viability, T/C (second compound 10 µM, first compound 0.001 µM) of 24.9%, a viability, T/C (second compound 10 µM, first compound 0.00316 µM) of 47.5% and a viability, T/C (second compound 10 µM, first compound 0.01 µM) of 39.8%. It also gave a viability, T/C [9] of 31.4% and a viability, T/C [10] of 20.9%.

With `CC1(C)CCC(CN2CCN(c3ccc(C(=O)NS(=O)(=O)c4ccc(NCC5CCOCC5)c([N+](=O)[O-])c4)c(Oc4cnc5[nH]ccc5c4)c3)CC2)=C(c2ccc(Cl)cc2)C1` + COc1cc2nc(C)nc(NC(C)c3cc(N)cc(C(F)(F)F)c3)c2cc1OC1CCOC1 the IC50 (second compound 0.1 µM) was 7.29 µM, the IC50 (second compound 0.316 µM) was 6.93 µM and the IC50 (second compound 1 µM) was 5.01 µM. It also gave an IC50 (second compound 3.16 µM) of 4.31 µM, an IC50 (second compound 10 µM) of under 0.0316 µM and a viability, T/C [1] of 93.7%. For the same molecule, the viability, T/C [2] was 91.3%, the viability, T/C [11] was 91.8% and the viability, T/C [12] was 88.3%. The viability, T/C [13] was 82.2%, the viability, T/C [14] was 37.6% and the viability, T/C [3] was 96.9%. For the same molecule, the viability, T/C [4] was 88.4%, the viability, T/C [15] was 86% and the viability, T/C [16] was 92.7%. It also gave a viability, T/C [17] of 79.5%, a viability, T/C [18] of 35.7% and a viability, T/C [5] of 91.2%. The viability, T/C [6] was 88.3%, the viability, T/C [19] was 81.9% and the viability, T/C [20] was 83.1%. The viability, T/C [21] was 64.1%, the viability, T/C [22] was 28% and the viability, T/C [7] was 84.4%. The viability, T/C [8] was 82.8%, the viability, T/C [23] was 84.4% and the viability, T/C [24] was 71.7%. The viability, T/C [25] was 59.7%, the viability, T/C [26] was 26.4% and the viability, T/C [9] was 31.2%. For the same molecule, the viability, T/C [10] was 35.5%, the viability, T/C [27] was 23.4% and the viability, T/C [28] was 27.7%. The viability, T/C [29] was 26.2% and the viability, T/C [30] was 8.47%.

For `COc1cc(Nc2ncc3c(n2)-c2ccc(Cl)cc2C(c2c(F)cccc2OC)=NC3)ccc1C(=O)O` + COc1cc2nc(C)nc(NC(C)c3cc(N)cc(C(F)(F)F)c3)c2cc1OC1CCOC1, the IC50 (second compound 0.1 µM) was over 10 µM, the IC50 (second compound 0.316 µM) was over 10 µM and the IC50 (second compound 1 µM) was over 10 µM. For the same molecule, the IC50 (second compound 3.16 µM) was over 10 µM, the IC50 (second compound 10 µM) was 0.0883 µM and the viability, T/C [1] was 110%. It also gave a viability, T/C [2] of 99.3%, a viability, T/C [11] of 90.9% and a viability, T/C [12] of 105%. The viability, T/C [13] was 106%, the viability, T/C [14] was 108% and the viability, T/C [3] was 114%. It also gave a viability, T/C [4] of 96.4%, a viability, T/C [15] of 90.7% and a viability, T/C [16] of 96.1%. The viability, T/C [17] was 102%, the viability, T/C [18] was 105% and the viability, T/C [5] was 108%. The viability, T/C [6] was 102%, the viability, T/C [19] was 101% and the viability, T/C [20] was 93.7%. For the same molecule, the viability, T/C [21] was 108%, the viability, T/C [22] was 107% and the viability, T/C [7] was 98.8%. The viability, T/C [8] was 96.8%, the viability, T/C [23] was 92.3% and the viability, T/C [24] was 92.5%. For the same molecule, the viability, T/C [25] was 97.5%, the viability, T/C [26] was 114% and the viability, T/C [9] was 83.4%. It also gave a viability, T/C [10] of 45.5%, a viability, T/C [27] of 44% and a viability, T/C [28] of 45.6%. It also gave a viability, T/C [29] of 62.9% and a viability, T/C [30] of 30.3%.

Work on `COc1cc2nccc(Oc3ccc(NC(=O)C4(C(=O)Nc5ccc(F)cc5)CC4)cc3)c2cc1OC` + COc1cc2nc(C)nc(NC(C)c3cc(N)cc(C(F)(F)F)c3)c2cc1OC1CCOC1 yielded an IC50 (second compound 0.1 µM) of over 10 µM, an IC50 (second compound 0.316 µM) of over 10 µM and an IC50 (second compound 1 µM) of 4.63 µM. The IC50 (second compound 3.16 µM) was 1.72 µM, the IC50 (second compound 10 µM) was under 0.0316 µM and the viability, T/C [1] was 99.6%. The viability, T/C [2] was 102%, the viability, T/C [11] was 104% and the viability, T/C [12] was 91%. It also gave a viability, T/C [13] of 65.2%, a viability, T/C [14] of 60% and a viability, T/C [3] of 96.6%. It also gave a viability, T/C [4] of 93.5%, a viability, T/C [15] of 93.1% and a viability, T/C [16] of 80.9%. For the same molecule, the viability, T/C [17] was 65.8%, the viability, T/C [18] was 54.8% and the viability, T/C [5] was 97.4%. For the same molecule, the viability, T/C [6] was 93.4%, the viability, T/C [19] was 76.2% and the viability, T/C [20] was 73.9%. It also gave a viability, T/C [21] of 48.7%, a viability, T/C [22] of 44.6% and a viability, T/C [7] of 88.8%. For the same molecule, the viability, T/C [8] was 97.9%, the viability, T/C [23] was 89.5% and the viability, T/C [24] was 67.6%. It also gave a viability, T/C [25] of 28.7%, a viability, T/C [26] of 31.8% and a viability, T/C [9] of 55%. It also gave a viability, T/C [10] of 17.2%, a viability, T/C [27] of 21.5% and a viability, T/C [28] of 28.1%. The viability, T/C [29] was 0.71% and the viability, T/C [30] was 0.34%.
